In brackets after ≈: the same amount, converted by molar mass.
How the values were obtained:
[1] = test system: Streptococcus mutans; assay: Antibacterial activity against Streptococcus mutans ATCC 25175 assessed as effect on planktonic growth at 21.9 ug/ml after 20 hrs relative to control; format: functional
[2] = test system: Streptococcus mutans; assay: Antibacterial activity against Streptococcus mutans ATCC 25175 assessed as effect on planktonic growth at 43.8 ug/ml after 20 hrs relative to control; format: functional
[3] = test system: Streptococcus mutans; assay: Antibacterial activity against Streptococcus mutans ATCC 25175 assessed as effect on planktonic growth at 87.5 ug/ml after 20 hrs relative to control; format: functional
[4] = test system: Staphylococcus aureus; assay: Antibacterial activity against Staphylococcus aureus ATCC 25923 assessed as effect on planktonic growth at 0.17 ug/ml after 20 hrs relative to control; format: functional
[5] = test system: Staphylococcus aureus; assay: Antibacterial activity against Staphylococcus aureus ATCC 25923 assessed as effect on planktonic growth at 0.34 ug/ml after 20 hrs relative to control; format: functional
[6] = test system: Staphylococcus aureus; assay: Antibacterial activity against Staphylococcus aureus ATCC 25923 assessed as effect on planktonic growth at 0.68 ug/ml after 20 hrs relative to control; format: functional
[7] = test system: Staphylococcus aureus; assay: Antibacterial activity against Staphylococcus aureus ATCC 25923 assessed as effect on planktonic growth at 1.37 ug/ml after 20 hrs relative to control; format: functional
[8] = test system: Staphylococcus aureus; assay: Antibacterial activity against Staphylococcus aureus ATCC 25923 assessed as effect on planktonic growth at 5.5 ug/ml after 20 hrs relative to control; format: functional
[9] = test system: Staphylococcus aureus; assay: Antibacterial activity against Staphylococcus aureus ATCC 25923 assessed as effect on planktonic growth at 2.73 ug/ml after 20 hrs relative to control; format: functional
[10] = test system: Staphylococcus aureus; assay: Antibacterial activity against Staphylococcus aureus ATCC 25923 assessed as effect on planktonic growth at 10.9 ug/ml after 20 hrs relative to control; format: functional
[11] = test system: Staphylococcus aureus; assay: Antibacterial activity against Staphylococcus aureus ATCC 25923 assessed as effect on planktonic growth at 21.9 ug/ml after 20 hrs relative to control; format: functional
[12] = test system: Staphylococcus aureus; assay: Antibacterial activity against Staphylococcus aureus ATCC 25923 assessed as effect on planktonic growth at 43.8 ug/ml after 20 hrs relative to control; format: functional
[13] = test system: Staphylococcus aureus; assay: Antibacterial activity against Staphylococcus aureus ATCC 25923 assessed as effect on planktonic growth at 87.5 ug/ml after 20 hrs relative to control; format: functional
[14] = test system: Pseudomonas aeruginosa; assay: Antibacterial activity against Pseudomonas aeruginosa ATCC 27853 assessed as effect on planktonic growth at 0.17 ug/ml after 20 hrs relative to control; format: functional
[15] = test system: Pseudomonas aeruginosa; assay: Antibacterial activity against Pseudomonas aeruginosa ATCC 27853 assessed as effect on planktonic growth at 0.34 ug/ml after 20 hrs relative to control; format: functional
[16] = test system: Pseudomonas aeruginosa; assay: Antibacterial activity against Pseudomonas aeruginosa ATCC 27853 assessed as effect on planktonic growth at 0.68 ug/ml after 20 hrs relative to control; format: functional
[17] = test system: Pseudomonas aeruginosa; assay: Antibacterial activity against Pseudomonas aeruginosa ATCC 27853 assessed as effect on planktonic growth at 1.37 ug/ml after 20 hrs relative to control; format: functional
[18] = test system: Pseudomonas aeruginosa; assay: Antibacterial activity against Pseudomonas aeruginosa ATCC 27853 assessed as effect on planktonic growth at 2.73 ug/ml after 20 hrs relative to control; format: functional
[19] = test system: Pseudomonas aeruginosa; assay: Antibacterial activity against Pseudomonas aeruginosa ATCC 27853 assessed as effect on planktonic growth at 5.5 ug/ml after 20 hrs relative to control; format: functional
[20] = test system: Pseudomonas aeruginosa; assay: Antibacterial activity against Pseudomonas aeruginosa ATCC 27853 assessed as effect on planktonic growth at 10.9 ug/ml after 20 hrs relative to control; format: functional
[21] = test system: Pseudomonas aeruginosa; assay: Antibacterial activity against Pseudomonas aeruginosa ATCC 27853 assessed as effect on planktonic growth at 21.9 ug/ml after 20 hrs relative to control; format: functional
[22] = test system: Pseudomonas aeruginosa; assay: Antibacterial activity against Pseudomonas aeruginosa ATCC 27853 assessed as effect on planktonic growth at 43.8 ug/ml after 20 hrs relative to control; format: functional
[23] = test system: Pseudomonas aeruginosa; assay: Antibacterial activity against Pseudomonas aeruginosa ATCC 27853 assessed as effect on planktonic growth at 87.5 ug/ml after 20 hrs relative to control; format: functional
[24] = test system: Staphylococcus epidermidis; assay: Antibacterial activity against Staphylococcus epidermidis ATCC 35547 assessed as effect on planktonic growth at 0.17 ug/ml after 20 hrs relative to control; format: functional
[25] = test system: Staphylococcus epidermidis; assay: Antibacterial activity against Staphylococcus epidermidis ATCC 35547 assessed as effect on planktonic growth at 0.34 ug/ml after 20 hrs relative to control; format: functional
[26] = test system: Staphylococcus epidermidis; assay: Antibacterial activity against Staphylococcus epidermidis ATCC 35547 assessed as effect on planktonic growth at 0.68 ug/ml after 20 hrs relative to control; format: functional
[27] = test system: Staphylococcus epidermidis; assay: Antibacterial activity against Staphylococcus epidermidis ATCC 35547 assessed as effect on planktonic growth at 1.37 ug/ml after 20 hrs relative to control; format: functional
[28] = test system: Staphylococcus epidermidis; assay: Antibacterial activity against Staphylococcus epidermidis ATCC 35547 assessed as effect on planktonic growth at 2.73 ug/ml after 20 hrs relative to control; format: functional
[29] = test system: Staphylococcus epidermidis; assay: Antibacterial activity against Staphylococcus epidermidis ATCC 35547 assessed as effect on planktonic growth at 5.5 ug/ml after 20 hrs relative to control; format: functional
[30] = test system: Staphylococcus epidermidis; assay: Antibacterial activity against Staphylococcus epidermidis ATCC 35547 assessed as effect on planktonic growth at 10.9 ug/ml after 20 hrs relative to control; format: functional
[31] = test system: Staphylococcus epidermidis; assay: Antibacterial activity against Staphylococcus epidermidis ATCC 35547 assessed as effect on planktonic growth at 21.9 ug/ml after 20 hrs relative to control; format: functional
[32] = test system: Staphylococcus epidermidis; assay: Antibacterial activity against Staphylococcus epidermidis ATCC 35547 assessed as effect on planktonic growth at 43.8 ug/ml after 20 hrs relative to control; format: functional
[33] = test system: Staphylococcus epidermidis; assay: Antibacterial activity against Staphylococcus epidermidis ATCC 35547 assessed as effect on planktonic growth at 87.5 ug/ml after 20 hrs relative to control; format: functional
[34] = test system: Staphylococcus aureus; assay: Antibacterial activity against Staphylococcus aureus ATCC 25923 assessed as inhibition of biofilm formation after 20 hrs by crystal-violet staining method; format: functional, organism-based; conditions: ATCC 25923, 20 h
[35] = test system: Staphylococcus aureus; assay: Antibacterial activity against Staphylococcus aureus ATCC 25923 assessed as inhibition of biofilm formation at 44 ug/ml after 20 hrs by crystal-violet staining method relative to control; format: functional; conditions: ATCC 25923, 20 h
[36] = test system: Pseudomonas aeruginosa; assay: Antibacterial activity against Pseudomonas aeruginosa ATCC 27853 assessed as inhibition of biofilm formation after 20 hrs by crystal-violet staining method; format: functional, organism-based
[37] = test system: Staphylococcus epidermidis; assay: Antibacterial activity against Staphylococcus epidermidis ATCC 35547 assessed as inhibition of biofilm formation after 20 hrs by crystal-violet staining method; format: functional, organism-based
[38] = test system: Streptococcus mutans; assay: Antibacterial activity against Streptococcus mutans ATCC 25175 assessed as effect on planktonic growth at 0.17 ug/ml after 20 hrs relative to control; format: functional
[39] = test system: Streptococcus mutans; assay: Antibacterial activity against Streptococcus mutans ATCC 25175 assessed as effect on planktonic growth at 0.34 ug/ml after 20 hrs relative to control; format: functional
[40] = test system: Streptococcus mutans; assay: Antibacterial activity against Streptococcus mutans ATCC 25175 assessed as effect on planktonic growth at 0.68 ug/ml after 20 hrs relative to control; format: functional
[41] = test system: Streptococcus mutans; assay: Antibacterial activity against Streptococcus mutans ATCC 25175 assessed as effect on planktonic growth at 1.37 ug/ml after 20 hrs relative to control; format: functional
[42] = test system: Streptococcus mutans; assay: Antibacterial activity against Streptococcus mutans ATCC 25175 assessed as effect on planktonic growth at 2.73 ug/ml after 20 hrs relative to control; format: functional
[43] = test system: Streptococcus mutans; assay: Antibacterial activity against Streptococcus mutans ATCC 25175 assessed as effect on planktonic growth at 5.5 ug/ml after 20 hrs relative to control; format: functional
[44] = test system: Streptococcus mutans; assay: Antibacterial activity against Streptococcus mutans ATCC 25175 assessed as effect on planktonic growth at 10.9 ug/ml after 20 hrs relative to control; format: functional

COc1ccc(Cl)cc1C1=C(Br)C(=O)N(CC(C)C)C1(O)Cc1ccccc1Br (stereo unspecified)
Activity [1]: 15.4% | Activity [2]: 24.4% | Activity [3]: 24.4% | Activity [4]: 8.4% | Activity [5]: 6.2% | Activity [6]: 3.7% | Activity [7]: 5.9% | Activity [8]: -9% | Activity [9]: -1.3% | Activity [10]: -2.4% | Activity [11]: 4.2% | Activity [12]: 12.8% | Activity [13]: 14.3% | Activity [14]: -7.2% | Activity [15]: -9.6% | Activity [16]: -6.4% | Activity [17]: -5.6% | Activity [18]: -13.8% | Activity [19]: -13.5% | Activity [20]: -14.9% | Activity [21]: -9.2% | Activity [22]: 5.7% | Activity [23]: 24.8% | Activity [24]: 9.4% | Activity [25]: 2.6% | Activity [26]: 9.4% | Activity [27]: 7.8% | Activity [28]: 21.5% | Activity [29]: 6.4% | Activity [30]: 4.2% | Activity [31]: 13.2% | Activity [32]: 28.8% | Activity [33]: 17.6% | IC50 [34]: 6.8 µM | inhibition at 44 µg/mL [35]: 53.1% | inhibition [36]: Dose-dependent effect | IC50 ([36]; ATCC 27853, 20 h): > 87.5 µg/mL | inhibition [37]: Dose-dependent effect | IC50 ([37]; ATCC 35547, 20 h): 83.4 µg/mL (≈ 153 µM) | Activity [38]: -16.1% | Activity [39]: -13.8% | Activity [40]: -7.7% | Activity [41]: 3.5% | Activity [42]: 1.6% | Activity [43]: 9% | Activity [44]: 9%
